In ChEMBL document CHEMBL5705898 (Proc Natl Acad Sci U S A, 2014):

Assays:
[1] = target: T1, Histone-lysine N-methyltransferase SETD7 (Homo sapiens, UniProt Q8WTS6); test: Inhibition of full length human SETD7 (1 to 366 residues) expressed in Escherichia coli BL21 (DE3) V2R-pRARE assessed as apparent inhibition constant using biotinylated H3 (1-25) peptide as substrate incubated for 1 hrs in presence of 3H-SAM by morrison equation; details: read-out: Ki(app)
T1 sequence (Q8WTS6 whole entry): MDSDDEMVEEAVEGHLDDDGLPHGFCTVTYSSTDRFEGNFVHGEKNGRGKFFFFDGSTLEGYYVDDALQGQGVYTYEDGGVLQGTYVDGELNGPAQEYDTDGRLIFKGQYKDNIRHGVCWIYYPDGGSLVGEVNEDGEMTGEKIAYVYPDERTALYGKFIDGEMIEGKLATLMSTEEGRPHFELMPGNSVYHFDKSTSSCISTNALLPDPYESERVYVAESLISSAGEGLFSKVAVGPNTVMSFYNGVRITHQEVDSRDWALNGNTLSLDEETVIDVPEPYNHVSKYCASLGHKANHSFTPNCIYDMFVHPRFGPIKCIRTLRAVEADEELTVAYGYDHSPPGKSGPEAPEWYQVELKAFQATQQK

[2] = target: T1, Histone-lysine N-methyltransferase SETD7; test: Binding affinity to biotinylated SETD7 (unknown origin) assessed as dissociation constant in presence of SAM in flow and wash buffer by SPR analysis
[3] = Permeability of compound in MDCKII-LE cells; type: ADME, cell-based, Canis lupus familiaris; details: dog, MDCK; read-out: permeability
HFF = test: Cytotoxicity against HFF cells assessed as reduction in cell viability at <50 uM by alamar blue assay; type: toxicity, cell-based; details: human
MCF7 = test: Cytotoxicity against human MCF7 cells assessed as reduction in cell viability at <50 uM by alamar blue assay; type: toxicity, cell-based; details: mcf7, 50 µM
MDA-MB-231 = test: Cytotoxicity against human MDA-MB-231 cells assessed as reduction in cell viability at <50 uM by alamar blue assay; type: toxicity, cell-based; details: mda-mb-231, 50 µM
[4] = target: Beta-1 adrenergic receptor (Homo sapiens) (UniProt P08588); test: Inhibition of human beta 1 receptor at 10 uM relative to control
[5] = target: Type-2 angiotensin II receptor (Homo sapiens) (UniProt P50052); test: Inhibition of human AT2 receptor at 10 uM relative to control
[6] = target: Cannabinoid receptor 1 (Homo sapiens) (UniProt P21554); test: Inhibition of human CB1 receptor at 10 uM relative to control
[7] = target: D(1A) dopamine receptor (Homo sapiens) (UniProt P21728); test: Inhibition of human D1 receptor at 10 uM relative to control
[8] = target: D(2) dopamine receptor (Homo sapiens) (UniProt P14416); test: Inhibition of human D2S receptor at 10 uM relative to control
[9] = target: Endothelin receptor type B (Homo sapiens) (UniProt P24530); test: Inhibition of human ETB receptor at 10 uM relative to control
[10] = target: GABA-A receptor; alpha-1/beta-2/gamma-2 (Homo sapiens) (UniProt P14867+P47870+P18507); test: Inhibition of human GABA alpha1/beta2/gamma2 at 10 uM relative to control; type: protein-complex assay
Homo sapiens [11] = organism: Homo sapiens; test: Inhibition of human TNF-alpha at 10 uM relative to control
[12] = target: Histamine H2 receptor (Homo sapiens) (UniProt P25021); test: Inhibition of human H2 receptor at 10 uM relative to control
[13] = target: Leukotriene B4 receptor 1 (Homo sapiens) (UniProt Q15722); test: Inhibition of human BLT1 at 10 uM relative to control
[14] = target: Melanin-concentrating hormone receptor 1 (Homo sapiens) (UniProt Q99705); test: Inhibition of human MCH1 receptor at 10 uM relative to control
[15] = target: Melanocortin receptor 3 (Homo sapiens) (UniProt P41968); test: Inhibition of human MC3 receptor at 10 uM relative to control
[16] = target: Substance-P receptor (Homo sapiens) (UniProt P25103); test: Inhibition of human NK1 receptor at 10 uM relative to control
[17] = target: Neuropeptide Y receptor type 1 (Homo sapiens) (UniProt P25929); test: Inhibition of human Y1 receptor at 10 uM relative to control
[18] = target: Platelet-activating factor receptor (Homo sapiens) (UniProt P25105); test: Inhibition of human PAF receptor at 10 uM relative to control
[19] = target: 5-hydroxytryptamine receptor 1D (Homo sapiens) (UniProt P28221); test: Inhibition of 5-HT1D receptor (unknown origin) at 10 uM relative to control
Homo sapiens [20] = organism: Homo sapiens; test: Inhibition of human 5-HT3 receptor at 10 uM relative to control
Homo sapiens [21] = organism: Homo sapiens; test: Inhibition of human UT at 10 uM relative to control
[22] = target: Sodium-dependent noradrenaline transporter (Homo sapiens) (UniProt P23975); test: Inhibition of human norepinephrine transporter at 10 uM relative to control
[23] = target: High affinity choline transporter 1 (Homo sapiens) (UniProt Q9GZV3); test: Inhibition of human choline transporter (CHT1) at 10 uM relative to control
[24] = target: Prostaglandin G/H synthase 1 (Homo sapiens) (UniProt P23219); test: Inhibition of human COX1 at 10 uM relative to control
[25] = target: Prostaglandin G/H synthase 2 (Homo sapiens) (UniProt P35354); test: Inhibition of human COX2 at 10 uM relative to control
[26] = target: cGMP-dependent 3',5'-cyclic phosphodiesterase (Homo sapiens) (UniProt O00408); test: Inhibition of human PDE2A1 at 10 uM relative to control
[27] = target: cGMP-specific 3',5'-cyclic phosphodiesterase (Homo sapiens) (UniProt O76074); test: Inhibition of human PDE5 at 10 uM relative to control
Homo sapiens [28] = organism: Homo sapiens; test: Inhibition of PDE6 (unknown origin) at 10 uM relative to control
[29] = target: Beta-secretase 1 (Homo sapiens) (UniProt P56817); test: Inhibition of human BACE-1 at 10 uM relative to control
[30] = target: Human immunodeficiency virus type 1 protease (Human immunodeficiency virus 1) (UniProt Q72874); test: Inhibition of HIV-1 protease at 10 uM relative to control
[31] = target: Matrix metalloproteinase-9 (Homo sapiens) (UniProt P14780); test: Inhibition of human MMP-9 at 10 uM relative to control
[32] = target: Mitogen-activated protein kinase 1 (Homo sapiens) (UniProt P28482); test: Inhibition of human ERK2 (P42mapk) at 10 uM relative to control
[33] = target: Acetylcholinesterase (Homo sapiens) (UniProt P22303); test: Inhibition of human acetylcholinesterase at 10 uM relative to control
Homo sapiens [34] = organism: Homo sapiens; test: Inhibition of Na+/K+ ATPase (unknown origin) at 10 uM relative to control
[35] = target: Bombesin receptor subtype-3 (Homo sapiens, UniProt P32247); test: Inhibition of human BB3 receptor

Chain of D(1A) dopamine receptor (Homo sapiens) (P21728 whole entry): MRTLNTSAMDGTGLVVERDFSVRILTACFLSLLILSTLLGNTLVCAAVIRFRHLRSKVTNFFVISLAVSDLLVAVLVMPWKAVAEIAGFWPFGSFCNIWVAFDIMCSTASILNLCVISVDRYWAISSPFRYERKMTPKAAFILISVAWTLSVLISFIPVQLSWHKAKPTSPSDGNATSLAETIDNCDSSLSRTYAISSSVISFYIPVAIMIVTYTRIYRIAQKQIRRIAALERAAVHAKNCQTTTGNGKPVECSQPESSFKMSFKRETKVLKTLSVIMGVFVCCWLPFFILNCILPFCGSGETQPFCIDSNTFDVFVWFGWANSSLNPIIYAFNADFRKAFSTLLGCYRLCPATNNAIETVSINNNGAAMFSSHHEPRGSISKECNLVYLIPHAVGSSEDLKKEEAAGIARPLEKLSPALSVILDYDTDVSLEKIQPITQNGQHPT
Chain of Endothelin receptor type B (Homo sapiens) (P24530 whole entry): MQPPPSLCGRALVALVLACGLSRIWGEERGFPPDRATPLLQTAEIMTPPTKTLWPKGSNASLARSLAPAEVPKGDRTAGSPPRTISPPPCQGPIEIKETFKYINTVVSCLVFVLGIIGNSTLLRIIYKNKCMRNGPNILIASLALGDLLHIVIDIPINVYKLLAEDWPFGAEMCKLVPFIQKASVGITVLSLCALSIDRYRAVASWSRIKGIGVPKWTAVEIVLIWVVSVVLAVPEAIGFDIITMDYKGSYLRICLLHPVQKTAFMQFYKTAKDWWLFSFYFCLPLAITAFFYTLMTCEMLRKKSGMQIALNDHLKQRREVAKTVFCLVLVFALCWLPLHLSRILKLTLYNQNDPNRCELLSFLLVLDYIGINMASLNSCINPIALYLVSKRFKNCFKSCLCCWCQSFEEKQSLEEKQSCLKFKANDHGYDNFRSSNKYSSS
Chain of Melanocortin receptor 3 (Homo sapiens) (P41968 whole entry): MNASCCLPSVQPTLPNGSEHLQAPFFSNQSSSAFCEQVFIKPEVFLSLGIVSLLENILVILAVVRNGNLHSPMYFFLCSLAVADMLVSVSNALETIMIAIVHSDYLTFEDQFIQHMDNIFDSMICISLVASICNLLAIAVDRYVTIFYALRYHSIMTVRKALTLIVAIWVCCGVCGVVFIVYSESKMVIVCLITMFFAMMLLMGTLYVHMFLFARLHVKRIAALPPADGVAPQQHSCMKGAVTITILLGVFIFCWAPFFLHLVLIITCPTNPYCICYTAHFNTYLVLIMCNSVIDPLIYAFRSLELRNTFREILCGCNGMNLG
Chain of D(2) dopamine receptor (Homo sapiens) (P14416 whole entry): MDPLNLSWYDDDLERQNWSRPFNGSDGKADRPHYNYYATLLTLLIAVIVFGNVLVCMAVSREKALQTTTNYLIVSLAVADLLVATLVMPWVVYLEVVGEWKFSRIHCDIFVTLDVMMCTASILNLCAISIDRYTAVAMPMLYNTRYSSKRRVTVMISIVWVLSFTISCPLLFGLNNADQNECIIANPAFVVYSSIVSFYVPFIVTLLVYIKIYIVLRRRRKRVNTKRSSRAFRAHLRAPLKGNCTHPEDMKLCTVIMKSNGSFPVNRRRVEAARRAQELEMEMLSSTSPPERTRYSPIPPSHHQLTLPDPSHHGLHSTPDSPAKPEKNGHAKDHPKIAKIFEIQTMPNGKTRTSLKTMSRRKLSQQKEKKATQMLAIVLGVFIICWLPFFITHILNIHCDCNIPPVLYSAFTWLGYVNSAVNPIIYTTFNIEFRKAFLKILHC
Chain of Mitogen-activated protein kinase 1 (Homo sapiens) (P28482 whole entry): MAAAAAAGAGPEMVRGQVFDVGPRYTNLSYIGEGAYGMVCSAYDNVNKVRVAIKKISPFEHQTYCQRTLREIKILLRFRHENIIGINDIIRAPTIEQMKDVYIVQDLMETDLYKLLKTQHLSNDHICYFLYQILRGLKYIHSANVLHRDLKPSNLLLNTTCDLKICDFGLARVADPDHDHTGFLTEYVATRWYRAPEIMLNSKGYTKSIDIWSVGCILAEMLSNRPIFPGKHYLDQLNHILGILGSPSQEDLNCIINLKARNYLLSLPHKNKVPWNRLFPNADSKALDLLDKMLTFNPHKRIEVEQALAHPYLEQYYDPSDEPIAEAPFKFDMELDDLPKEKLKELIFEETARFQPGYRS
Chain of Cannabinoid receptor 1 (Homo sapiens) (P21554 whole entry): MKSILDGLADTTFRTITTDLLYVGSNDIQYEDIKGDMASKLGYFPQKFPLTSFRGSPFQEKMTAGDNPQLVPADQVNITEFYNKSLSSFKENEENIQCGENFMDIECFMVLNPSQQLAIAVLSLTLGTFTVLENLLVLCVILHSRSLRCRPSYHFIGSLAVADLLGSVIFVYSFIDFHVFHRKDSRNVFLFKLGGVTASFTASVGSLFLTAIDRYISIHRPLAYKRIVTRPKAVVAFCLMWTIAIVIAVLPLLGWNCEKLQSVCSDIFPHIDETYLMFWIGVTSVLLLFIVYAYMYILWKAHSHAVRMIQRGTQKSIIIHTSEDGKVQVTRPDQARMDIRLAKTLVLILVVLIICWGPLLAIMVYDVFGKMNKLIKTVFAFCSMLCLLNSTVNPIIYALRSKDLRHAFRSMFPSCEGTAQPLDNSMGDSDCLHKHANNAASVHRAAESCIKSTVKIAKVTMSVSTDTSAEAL
Chain of Prostaglandin G/H synthase 2 (Homo sapiens) (P35354 whole entry): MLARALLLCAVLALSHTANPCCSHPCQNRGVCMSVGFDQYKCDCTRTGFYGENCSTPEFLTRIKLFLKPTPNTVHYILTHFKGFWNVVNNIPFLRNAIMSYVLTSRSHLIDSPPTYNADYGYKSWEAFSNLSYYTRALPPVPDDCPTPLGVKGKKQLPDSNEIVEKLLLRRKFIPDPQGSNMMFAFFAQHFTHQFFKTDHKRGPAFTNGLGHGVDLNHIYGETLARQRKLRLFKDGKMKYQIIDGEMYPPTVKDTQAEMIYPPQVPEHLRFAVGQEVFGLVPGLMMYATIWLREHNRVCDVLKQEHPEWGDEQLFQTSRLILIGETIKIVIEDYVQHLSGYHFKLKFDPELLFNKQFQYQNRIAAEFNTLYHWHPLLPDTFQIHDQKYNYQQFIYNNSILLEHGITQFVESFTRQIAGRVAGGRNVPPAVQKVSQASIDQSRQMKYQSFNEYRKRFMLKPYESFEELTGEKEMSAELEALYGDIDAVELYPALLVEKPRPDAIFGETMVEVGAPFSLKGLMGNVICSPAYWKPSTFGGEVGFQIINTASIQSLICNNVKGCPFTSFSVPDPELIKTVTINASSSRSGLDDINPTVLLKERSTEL
Chain of Sodium-dependent noradrenaline transporter (Homo sapiens) (P23975 whole entry): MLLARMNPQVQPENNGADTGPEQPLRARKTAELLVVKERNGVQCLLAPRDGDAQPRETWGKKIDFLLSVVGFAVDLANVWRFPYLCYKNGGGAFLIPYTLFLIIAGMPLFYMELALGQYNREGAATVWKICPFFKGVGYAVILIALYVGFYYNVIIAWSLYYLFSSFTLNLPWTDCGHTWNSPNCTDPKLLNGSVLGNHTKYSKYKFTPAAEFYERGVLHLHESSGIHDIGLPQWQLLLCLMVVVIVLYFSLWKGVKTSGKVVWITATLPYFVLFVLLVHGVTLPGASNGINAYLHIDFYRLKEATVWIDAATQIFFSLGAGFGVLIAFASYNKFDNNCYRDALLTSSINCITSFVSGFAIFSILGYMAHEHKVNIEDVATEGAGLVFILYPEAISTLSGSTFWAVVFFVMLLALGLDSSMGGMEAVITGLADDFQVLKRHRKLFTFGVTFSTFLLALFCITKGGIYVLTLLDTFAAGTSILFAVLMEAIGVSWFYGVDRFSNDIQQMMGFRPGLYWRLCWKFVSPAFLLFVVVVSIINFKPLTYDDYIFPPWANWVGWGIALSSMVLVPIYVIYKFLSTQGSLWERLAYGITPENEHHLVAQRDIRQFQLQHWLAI
Chain of cGMP-dependent 3',5'-cyclic phosphodiesterase (Homo sapiens) (O00408 whole entry): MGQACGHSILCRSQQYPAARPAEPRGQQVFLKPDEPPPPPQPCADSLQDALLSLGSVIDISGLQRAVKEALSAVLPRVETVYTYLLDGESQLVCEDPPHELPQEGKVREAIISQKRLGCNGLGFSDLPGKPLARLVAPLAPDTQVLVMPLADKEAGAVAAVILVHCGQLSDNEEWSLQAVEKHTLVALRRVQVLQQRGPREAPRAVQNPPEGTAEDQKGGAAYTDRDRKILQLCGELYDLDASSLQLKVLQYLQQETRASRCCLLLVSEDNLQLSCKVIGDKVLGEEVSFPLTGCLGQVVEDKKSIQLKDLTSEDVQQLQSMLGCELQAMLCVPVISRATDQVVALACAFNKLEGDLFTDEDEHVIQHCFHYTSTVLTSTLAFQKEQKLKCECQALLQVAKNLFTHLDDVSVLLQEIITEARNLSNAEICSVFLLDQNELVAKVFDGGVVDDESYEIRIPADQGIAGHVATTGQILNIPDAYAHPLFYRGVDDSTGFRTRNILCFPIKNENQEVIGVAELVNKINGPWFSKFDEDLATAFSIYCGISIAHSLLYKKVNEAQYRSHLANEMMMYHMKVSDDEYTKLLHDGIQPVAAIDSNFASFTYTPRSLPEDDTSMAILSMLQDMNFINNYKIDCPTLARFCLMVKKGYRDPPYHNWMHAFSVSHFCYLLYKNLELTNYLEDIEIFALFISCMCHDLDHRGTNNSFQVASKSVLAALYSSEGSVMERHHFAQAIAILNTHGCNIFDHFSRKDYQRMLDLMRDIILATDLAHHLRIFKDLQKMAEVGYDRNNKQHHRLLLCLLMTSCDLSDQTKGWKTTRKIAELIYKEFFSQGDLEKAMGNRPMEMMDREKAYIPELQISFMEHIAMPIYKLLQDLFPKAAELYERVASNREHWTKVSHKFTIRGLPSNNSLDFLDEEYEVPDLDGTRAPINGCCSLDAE
Chain of Platelet-activating factor receptor (Homo sapiens) (P25105 whole entry): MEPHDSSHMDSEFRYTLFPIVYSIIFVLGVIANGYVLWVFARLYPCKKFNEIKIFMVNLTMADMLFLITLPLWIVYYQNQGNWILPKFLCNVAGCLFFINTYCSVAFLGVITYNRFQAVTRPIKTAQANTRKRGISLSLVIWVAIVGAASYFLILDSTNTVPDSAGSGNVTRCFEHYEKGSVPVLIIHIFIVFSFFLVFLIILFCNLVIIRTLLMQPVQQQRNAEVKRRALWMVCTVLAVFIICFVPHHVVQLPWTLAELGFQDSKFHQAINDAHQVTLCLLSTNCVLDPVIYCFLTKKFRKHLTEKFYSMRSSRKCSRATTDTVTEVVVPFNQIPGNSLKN

O=C([C@@H](Cc1cccc(C(F)(F)F)c1)NS(=O)(=O)c1cc(F)c2c(c1)CCNC2)N1CCCC1
Ki [1]: 0.33 nM
Kd [2]: 4.2 nM
Papp [3]: 6.48 ×10⁻⁶ cm/s
Activity (HFF): Non-Toxic
Activity (MCF7): Non-Toxic
Activity (MDA-MB-231): Non-Toxic
inhibition [4]: -6%
inhibition [5]: 12%
inhibition [6]: 25%
inhibition [7]: 0%
inhibition [8]: 39%
inhibition [9]: 12%
inhibition [10]: -10%
inhibition (Homo sapiens [11]): -4%
inhibition [12]: 0%
inhibition [13]: -8%
inhibition [14]: -1%
inhibition [15]: 7%
inhibition [16]: 43%
inhibition [17]: -8%
inhibition [18]: 6%
inhibition [19]: 10%
inhibition (Homo sapiens [20]): -2%
inhibition (Homo sapiens [21]): 38%
inhibition [22]: 10%
inhibition [23]: 9%
inhibition [24]: 4%
inhibition [25]: -8%
inhibition [26]: -2%
inhibition [27]: 1%
inhibition (Homo sapiens [28]): 11%
inhibition [29]: 3%
inhibition [30]: -4%
inhibition [31]: -9%
inhibition [32]: 5%
inhibition [33]: 0%
inhibition (Homo sapiens [34]): 5%
IC50 [35]: 8100 nM
